This is an account of results in a melting point compilation (Tetko et al.; mined from patent text by program, amines drawn as free bases though some values may be those of a salt).

For the compound `COC1=C(OC)C(=O)C2=C(CCC(CCOc3ccc(C)cc3)CC2)C1=O`, the melting point is 56 to 57 °C.

`O=C1NCCC(C(=O)c2ccc(Cc3ccc(F)cc3)o2)=C1O` displayed a melting point of 166 to 168 °C.

Regarding `Cc1cccc2c1nc(COc1ccc(Cl)cc1)n2CCC(Cc1ccccc1)C(=O)NCCCN1CCCCC1` (stereo unspecified), the melting point lay in the range of 91 to 93 °C. The figure for `COC(=O)/C(=C/C=C/c1cc2cc(Cl)c(Cl)cc2[nH]1)OC` is 203 to 204 °C; for `CN(Cc1ccc(NC(=O)C2=Cc3cc(-c4ccncc4)ccc3OCC2)cc1)C1CCOCC1` it is 186 to 187 °C.

Compound `Cc1cc(-c2ccc(C(F)(F)F)cc2)cn2c(-c3nc(-c4cnc(N)nc4)no3)cnc12` registered a melting point of 302 °C. To `CCOC(=O)c1ncc2[nH]c3ccc(I)cc3c2c1C` belongs 250 to 255 °C; to `COc1cc(Cl)ccc1NC(=O)C1CCCn2c1nc(-c1ccncn1)cc2=O` (stereo unspecified), 251 to 253 °C. The figure for `COc1cc2ncc(CO)c(-c3ccnc(NN)c3)c2cc1OC` is 217 to 220 °C; for `CC(C)(C)OC(=O)Nc1cc(Cl)cc(C(F)(F)F)c1` it is 91 to 92 °C. To `COc1nc2ccccc2nc1NC(=O)N1CCN(c2ccccc2F)CC1` belongs 142 to 144 °C; to `O=C(c1ccc(-c2ccccc2)cc1)N1Cc2ccccc2Nc2ccccc21`, 180 to 182 °C.

Consider `CC(=O)N1CCC2(CC1)CN=C(c1cc3sc(C)c(N(C)S(=O)(=O)c4cccs4)c3[nH]1)S2`, for which the melting point was found to be 231 °C. The figure for `CC(=O)Nc1cc(F)ccc1C(=O)NCCN1CCC(n2c(=O)[nH]c3ccccc32)CC1` is 210 °C. The figure for `CC(=O)NC[C@H]1CN(c2ccc(-n3nccc3-c3ccccn3)c(F)c2)C(=O)O1` is 79.9 to 82.1 °C; for `CC(C)c1nc(C(C)C)c(CN2CCC(N3CCCCC3)CC2)c(-c2ccc(F)cc2)c1CO` it is 143 to 145 °C. The figure for `CC(=O)c1cc(OCC2CO2)ccc1OCc1ccccc1` (stereo unspecified) is 45 to 48 °C; for `Nc1nc(O)c2c(n1)NCC(CCc1cc(C(=O)O)c[nH]1)C2` (stereo unspecified) it is more than 260 °C. Take `CCOc1ccc(CCCOc2nn(C)cc2CC(=O)O)c(Oc2ccc(Cl)cc2Cl)n1`: the melting point was in the range of 81 to 83 °C. For `N[C@@H](CSc1ccccc1[N+](=O)[O-])C(=O)O`, the melting point lay within 168 to 171 °C. The figure for `CCOP(=O)(OCC)OC(=Cc1nccn1C)c1ccccc1` is 111 to 114 °C; for `COc1ccc(CCN2CCc3cc(OCc4ccccc4)c(OC)cc3C2)cc1` it is 88 to 89 °C. The figure for `O=S(=O)(F)c1c(F)nc2ccccn12` is 108 to 110 °C; for `CC(C)=NOCc1nc2c(N)nc3cccnc3c2n1CC(C)C` it is 173 to 175 °C; for `CC1(C)C(=O)N(c2ccc(C#N)c(C(F)(F)F)c2)C(=O)N1CC1OC1CN1C(=O)N(c2ccc(C#N)c(C(F)(F)F)c2)C(=O)C1(C)C` (stereo unspecified) it is 108 to 110 °C. To `O=C(CC(=O)C1CC1)c1ncc(Cl)cc1Cl` belongs 50.2 to 52.7 °C. In the case of `CN(Cc1ccccc1)C(Cc1ccccc1)C(=O)O` (stereo unspecified), the melting point was in the range of 214 to 215 °C. The figure for `Cn1c(Cl)c(C=O)c2cc(Cl)ccc21` is 165 to 167 °C. To `CC[C@H]1[C@H](O)CC(=O)N1c1ccc(C#N)c(C(F)(F)F)c1` belongs 111 to 112 °C.

In the case of `COC(=O)CCc1ccc(-n2c(C)c(C)[nH]c2=O)cc1`, the melting point lay within 152 to 154 °C. The figure for `NS(=O)(=O)c1cc(C(=O)O)cc(NCc2ccccc2)c1Oc1ccccc1` is 264 to 265 °C; for `CN1CC[C@@H](c2c(O)cc(O)c3c(=O)cc(-c4ccccc4Br)oc23)[C@@H]1CO` it is 235 to 237 °C.

As for `O=C(O)C1Cc2c(c(Br)cc3c(=O)c4ccccc4oc23)O1` (stereo unspecified), the melting point lay within 283 to 286 °C. To `O=C(Nc1nc(C(Cl)(Cl)Cl)ns1)c1cc([N+](=O)[O-])cc([N+](=O)[O-])c1` belongs 197 °C. To `C=CCC(=O)NCC(CO)c1cccc2ccc(OC)cc12` (stereo unspecified) belongs 86 to 88 °C. To `CS(=O)(=O)c1ccc(-n2nc(-c3ccc4c(c3)CCN(C3CCC3)CC4)ccc2=O)cc1` belongs 225 °C; to `Cc1nn(C)c(F)c1C(=O)Nc1ccccc1C(C)CC(C)(C)C` (stereo unspecified), 78 to 80 °C; to `COC(=O)C1=C(C)NC(c2csc(C)n2)=NC1c1ccc(F)cc1Cl` (stereo unspecified), 128 to 130 °C.

In the case of `O=C(O)c1cnn2c(C(F)F)cc(-c3ccc(Cl)c(Cl)c3)nc12`, the melting point is 263 °C. `c1ccc2c(c1)nc(-c1ccc3c(c1)OCO3)n2Cc1ccc2c(c1)OCO2` registered a melting point of 173 to 174 °C. As to `N#CC1(N2C(=O)c3cccc(Cl)c3C2=O)CCCCC1`, the melting point lay within 115 to 116 °C.

The compound `CC(C)n1nc(-c2c(N)nc(N)nc2-c2ccccc2)ccc1=O` gave a melting point of 258 to 260 °C. The figure for `COc1cc(CC(C#N)=CNc2ccccc2)cc(OC)c1NC=O` is 186 to 187 °C; for `Ic1ccc2c(c1)ncn2-c1cccc(-n2cccn2)c1` it is 209 to 211 °C.

For `CC(c1ccc(-c2ccccc2)c(F)c1)c1nc(CC(=O)O)no1` (stereo unspecified), the melting point is 100 to 102 °C. The figure for `N#CCc1cccc2c(-c3ccc([N+](=O)[O-])cc3)nccc12` is 219 °C; for `CCNC1CCN(c2c(F)c(N)c3c(=O)c(C(=O)O)cn(C4CC4)c3c2OC)CC1C` (stereo unspecified) it is 230 to 232 °C; for `FC(F)(Cc1c[nH]c2ccc(-n3cnnc3)cc12)CN1CCC(OCc2ccccc2)CC1` it is 170 °C. To `CCOC(=O)C(Cc1ccc(-c2ccco2)cc1)NC(=O)C1(NC(=O)OC(C)(C)C)CCCC1` (stereo unspecified) belongs 107 to 112 °C; to `O=Cc1ccc(CO)cc1`, 44.5 to 46 °C; to `CCOC(=O)c1cccc2c1c1c(C)ccc(C)c1n2S(=O)(=O)c1ccc(C)cc1`, 149 °C. To `CCC(O)c1ccc(-c2ccc(Cl)cc2)cc1` (stereo unspecified) belongs 114 to 116 °C. As to `CC(C)(C)C1CSC2(CCC(C=C(Br)Br)CC2)SC1` (stereo unspecified), the melting point turned out to be 143 °C. To `CCc1cn(C2CC(O)C(CCC(=O)C(C)Oc3ccc(Cl)cc3Cl)O2)c(=O)[nH]c1=O` (mixture of isomers) belongs 157 to 159 °C. `Cc1nn(C)c(C)c1C(=O)NC/C=C\COc1cc(CN2CCCCC2)ccn1` returned a melting point of 75 to 77 °C. The figure for `Cc1noc(C)c1C(=O)Nc1ccc(-n2nc(C(F)(F)F)cc2C(F)(F)F)c(C(F)(F)F)c1` is 61 to 63 °C.

On to `O=c1cc(Sc2ccccc2)c(-c2nc[nH]n2)nn1-c1ccccc1`, for which the melting point was 245 to 250 °C. To `CCc1cn(C2CC(I)C(COC(c3ccccc3)(c3ccccc3)c3ccccc3)O2)c(=O)[nH]c1=O` (stereo unspecified) belongs 93 to 98 °C. To `Cc1c(NC(=O)c2ccc(OC[C@@H]3CCCO3)cc2F)ccc2c1cc(CNCC1CCOCC1)n2C` belongs 149 °C. To `COCC(=O)Nc1c(C(=O)c2cccc(Cl)c2)[nH]c2cc(Cl)ccc12` belongs 154 to 155 °C. Take `CCCCCCCCCCC[C@@H]1CC(O)=CC(=O)O1`: the melting point lay in the range of 86 to 87 °C. For the compound `O=C(Cc1ccccc1)c1ccc(OCc2ccccc2)cc1O`, the melting point is 106 to 108 °C. To `Cc1[nH]cnc1CSCCNC1=C([N+](=O)[O-])CN(Cc2ccccc2)CN1` belongs 177 to 180 °C. For the compound `CC(=NO)c1ccc2c(c1)N(C(=O)OC(C)(C)C)CCC2`, the melting point fell in the range of 134 to 137 °C. To `CCn1c(COc2ccc(CC3SC(=O)NC3=O)cc2)nc2cccnc21` (stereo unspecified) belongs 210 to 212 °C; to `CCOP(=O)(OCC)C(F)c1ccc(NC(=O)CCc2oc(-n3cnc4ccccc43)nc2-c2ccc(Cl)cc2)cc1` (stereo unspecified), 152 to 155 °C. To `CCCCCCCNC(=O)Nc1ccc(N2CCOCC2)cc1C(=O)NCC1CCN(C(c2ccccc2)c2ccccc2)CC1` belongs 153 to 155 °C; to `Cc1cccc(C)c1N(C(C)CCl)S(C)(=O)=O` (stereo unspecified), 126 to 128 °C. To `Cc1nc(-n2cc(-c3cccnc3)nn2)sc1C(=O)NCc1ccccc1` belongs 117 to 119 °C; to `O=C(O)C=C1SC(=NCCc2ccccc2)N(CCc2ccccc2)C1=O`, 148 to 149 °C. `CCOC(=O)c1sc(SC)c(C(=O)CC(C)=O)c1C`: the melting point lay in the range of 51 to 52 °C. To `CCN(C(=O)C1CC1)c1cccc(-c2ccnc3c(C(=O)c4ccccc4)cnn23)c1` belongs 153 to 155 °C; to `C[C@H](COc1ccc(F)cc1)Nc1nc(Cl)nc2c1ncn2[C@@H]1O[C@H](CO)[C@@H](O)[C@H]1O`, 172 to 173 °C; to `O=C(O)CCC(=O)OCc1ccc(-c2nn(Cc3ccccc3)c3cc(F)ccc23)o1`, 120 to 122 °C. For `OC[C@@H](O)[C@@H](O)[C@H](O)[C@@H](O)CNC1CCCCC1`, the melting point is 144 to 146 °C. The figure for `N#CNC(=NCCN1CCC(C(=O)c2ccc(F)cc2)CC1)Oc1ccccc1` is 134 to 136 °C; for `CS(=O)(=O)c1ccc(-n2nc(C(F)(F)F)cc2-c2nc3cccc(F)c3s2)cc1` it is 186 to 188 °C. For `O=C(O)c1c(Cl)ccc([N+](=O)[O-])c1Nc1ccc(OCc2ccccc2)cc1`, the melting point was 172 to 174 °C.

`CCOC(=O)c1ncn(S(=O)(=O)N(C)C)n1` had a melting point of 78.5 to 81.5 °C. To `CC(C)OC(=O)N(O)CCN1CCCCC1` belongs 78 to 79 °C.

On to `O=C(NNS(=O)(=O)c1ccccc1)c1ccc(Cl)cc1Cl`, for which the melting point is 168 to 170 °C. The figure for `N#Cc1c(N)nc2ccc(N3CCN(Cc4ccccc4)CC3)cc2c1O` is 291 °C. `CCOC(=O)CN[C@H]1CSc2ccccc2N(CC(=O)O)C1=O` showed a melting point of 223 to 226 °C. Consider `CON=C1c2ccccc2-c2c(N3CCNCC3)nc3ccccc3c21`, for which the melting point is 149 to 150 °C. To `O=C1c2cccc(Oc3ccc(Cl)cc3)c2C(=O)N1Cc1cccnc1` belongs 193 to 194 °C; to `C#CCOc1noc2ccc(N3C(=O)C4=C(CCCC4)C3=O)cc12`, 147 to 148 °C.
